Patent publication US12042493B2, “Pharmaceutical compounds for use in treating Huntington's disease” (ADEPTIO PHARMACEUTICALS LIMITED, priority 2018, dated 2024)
Entries after “also recorded” stand apart in the source; their conditions may differ.

Experiments:
[1] = tested on: R6/2 mouse model of Huntington's disease; test: Tremor evaluation in the Tremor Monitor chamber, R6/2 mice; format: in vivo; details: 3.0 mg/kg p.o., pairwise t-test vs R6/2 Vehicle group, FIG. 3
Experimental: The objective of this study was to investigate the efficacy of (+)-α-dihydrotetrabenazine in the R6/2 mouse model of Huntington's disease. The mice were treated with (+)-α-dihydrotetrabenazine ((+)-α-DHTBZ), tetrabenazine (TBZ) or vehicle starting at 4 weeks of age and continuing until 13 weeks of age. […] The extent of tremor of the mice was evaluated at 7 and 13 weeks of age. […] The mice were placed inside a Tremor Monitor (San Diego Instruments, SDI) chamber for a 10 minute acclimatisation period, following which the tremor activity of the mice was measured for approximately 8 minutes. The recorded frequencies (1-64 hertz) of activity and the number of tremor events were captured electronically. Data were analysed by the Tremor Monitor software (San Diego Instruments) in a two part process. Using a Fast Fourier Transform (FFT), an output was provided showing the percentage of activity (energy) recorded at each frequency. […]

[2] = tested on: R6/2 mouse model of Huntington's disease; test: Survival rates in R6/2 mouse model of Huntington's disease; format: in vivo; details: for Number of mice alive at the end of the study / Survival Rate (%): male R6/2 mice
Experimental: The objective of this study was to investigate the efficacy of (+)-α-dihydrotetrabenazine in the R6/2 mouse model of Huntington's disease. The mice were treated with (+)-α-dihydrotetrabenazine ((+)-α-DHTBZ), tetrabenazine (TBZ) or vehicle starting at 4 weeks of age and continuing until 13 weeks of age.
In total, 38 male R6/2 mice and 9 wild type (WT) littermates were used in the study. Mice were dosed from 4 weeks of age until 13 weeks of age. During the course of the study, the body weight of the animals was measured twice-α-week for the whole study duration. At the end of the study, the mice were sacrificed and only tail samples were collected.
All animal experiments were performed as specified in the license authorized by the national Animal Experiment Board of Finland and according to the National Institutes of Health (Bethesda, MD, USA) guidelines for the care and use of laboratory animals. In total, 38 male R6/2 mice and 9 wild type (WT) littermates were used in the study. Only mice with normal plasma bile acid levels were used for the study.
Animals were grouped as follows: • Group 1: 9 male wild-type (WT) mice treated with vehicle (p.o.) from 4-13 weeks of age • Group 2: 9 male R6/2 mice treated with vehicle (p.o.) from 4-13 weeks of age • Group 3: 10 male R6/2 mice treated with (+)-α-DHTBZ (1.5 mg/kg, p.o.) from 4-13 weeks of age • Group 4: 10 male R6/2 mice treated with (+)-α-DHTBZ (3 mg/kg, p.o.) from 4-13 weeks of age • Group 5: 9 male R6/2 mice treated with tetrabenazine (1.5 mg/kg, p.o.) from 4-13 weeks of age
(+)-α-DHTBZ, TBZ and vehicle were administered each day (10 ml/kg, p.o., QD) at approximately the same time of the day for all the mice, starting at 9 a.m.-11 a.m., when the daily dosing was performed at least 1 hour before the tests.
The mice were monitored until end point or the fulfilment of the euthanasia criteria.
A one-tailed, N-1 Two Proportion Test was used to determine statistically significant differences in the survival rates between the treatment groups.

[3] = 1.5 mg/kg p.o. QD from 4-13 weeks of age
[4] = 3.0 mg/kg p.o. QD from 4-13 weeks of age

| SMILES | Tremor Power Spectral Density at 12 Hz [1] | Survival rate / lifespan of R6/2 mice versus vehicle or tetrabenazine (in words) ([2]; R6/2 mice, at both 1.5 mg/kg and 3.0 mg/kg, listed as (+)-α-dihydrotetrabenazine) | Number of mice alive at the end of the study [2, 3] | Survival Rate (%) [2, 3] | Number of mice alive at the end of the study [2, 4] | Survival Rate (%) [2, 4] |
| --- | --- | --- | --- | --- | --- | --- |
| COc1cc2c(cc1OC)[C@H]1C[C@@H](O)[C@H](CC(C)C)CN1CC2 [(+)-α-DHTBZ, (2R, 3R, 11bR)-3-isobutul-9,10-dimethox-1,3,4,6,7,11b-hexahydro-2H-pyrido[2,1,a]isoquinolin-2-ol] | significantly different compared to the R6/2 Vehicle group | significantly longer than the survival rates of the R6/2 mice treated with vehicle or tetrabenazine; also recorded: prolonged lifespan compared to untreated control R6/2 mice and R6/2 mice that had been treated with tetrabenazine | 10 | 100% | 10 | 100% |
| COc1cc2c(cc1OC)C1CC(=O)C(CC(C)C)CN1CC2 (racemic) [TBZ, 1,3,4,6,7,11b-hexahydro-9,10-dimethoxy-3-(2-methylpropyl)-2H-benzo(a)quinolizin-2-one, reference compound] |  |  | 7 | 77.8% |  |  |
